From patent US7109193B2, “Tricyclic diazepines tocolytic oxytocin receptor antagonists” (Wyeth, priority 2001, dated 2006)

Molecular target: T1, human oxytocin receptor (Homo sapiens, UniProt P30559)
T1 construct: host or cells: CHO cells (pcDNA3.1 vector)
T1 sequence (P30559 1-389): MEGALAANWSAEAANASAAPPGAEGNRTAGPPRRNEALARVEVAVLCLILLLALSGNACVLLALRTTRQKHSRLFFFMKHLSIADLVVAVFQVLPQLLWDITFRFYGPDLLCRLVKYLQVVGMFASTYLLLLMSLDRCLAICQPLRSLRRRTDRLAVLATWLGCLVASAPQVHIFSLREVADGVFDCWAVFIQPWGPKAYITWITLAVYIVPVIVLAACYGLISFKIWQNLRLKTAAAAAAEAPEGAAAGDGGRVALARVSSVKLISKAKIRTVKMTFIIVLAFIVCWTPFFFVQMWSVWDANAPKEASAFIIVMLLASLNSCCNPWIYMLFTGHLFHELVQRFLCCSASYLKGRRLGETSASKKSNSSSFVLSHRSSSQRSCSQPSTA
Test: Oxytocin binding in Chinese Hamster Ovary cell membranes expressing human oxytocin receptors
Conditions: 100 nM, CHO cell membranes, [3H]oxytocin, values without parentheses, read-out: OT % inhibition @ 100% nM

SMILES	inhibition at 0.1 µM [%]
Cc1cc(C(=O)N2Cc3ccc(C(=O)N4CCN(C(=O)OC(C)(C)C)CC4)n3Cc3ccccc32)ccc1-c1ccccc1C(F)(F)F [Example 6, 4-[[10,11-Dihydro-10-[[2-methyl-2′-trifluoromethyl[1,1′-biphenyl]-4-yl]carbonyl]-5H-pyrrolo[2,1-c][1,4]benzodiazepin-3-yl]carbonyl]-1-piperazine-carboxylic acid, tert-butyl ester]	56
COc1ccccc1-c1ccc(C(=O)N2Cc3ccc(C(=O)O)n3Cc3ccccc32)cc1C [Example 9, 10-[(2′-Methoxy-2-methyl-[1,1′-biphenyl]-4-yl)carbonyl]-10,11-dihydro-5H-pyrrolo[2,1-c][1,4]benzodiazepine-3-carboxylic acid]	32
COc1cc2c(cc1OC)N(C(=O)c1ccc(-c3ccccc3C(F)(F)F)c(C)c1)Cc1cccn1C2 [Example 12, 7,8-Dimethoxy-[10,11-dihydro-5H-pyrrolo[2,1-c][1,4]benzodiazepin-10-yl][2-methyl-2′-(trifluoromethyl)[1,1′-biphenyl]-4-yl]methanone]	21
COc1cc(-c2ccccc2C(F)(F)F)c(Cl)cc1C(=O)N1Cc2ccc(C(=O)O)n2Cc2ccccc21 [Example 15, 10-{[6-Chloro-3-methoxy-2′-trifluoromethyl-[1,1′-biphenyl]-4-yl]carbonyl}-10,11-dihydro-5H-pyrrolo[2,1-c][1,4]benzodiazepine-3-carboxylic acid]	-4
COc1cccc(-c2cc(OC)c(C(=O)N3Cc4ccc(C(=O)NCCN5CCCCC5)n4Cc4ccccc43)cc2Cl)c1 [Example 156, 10-[(6-Chloro-3,3′-dimethoxy[1,1′-biphenyl]-4-yl)carbonyl]-N-[2-(1-piperidinyl)ethyl]-10,11-dihydro-5H-pyrrolo[2,1-c][1,4]benzodiazepine-3-carboxamide]	30
COc1cc(C(=O)N2Cc3ccc(C(=O)NCCN4CCCCC4)n3Cc3ccccc32)ccc1-c1cccc2ccccc12 [Example 157, 10-[3-Methoxy-4-(1-naphthyl)benzoyl]-N-[2-(1-piperidinyl)ethyl]-10,11-dihydro-5H-pyrrolo[2,1-c][1,4]benzodiazepine-3-carboxamide]	38
COc1ccccc1-c1ccc(C(=O)N2Cc3ccc(C(=O)NCCN4CCCCC4)n3Cc3ccccc32)cc1OC [Example 158, 10-[(2,2′-Dimethoxy[1,1′-biphenyl]-4-yl)carbonyl]-N-[2-(1-piperidinyl)ethyl]-10,11-dihydro-5H-pyrrolo[2,1-c][1,4]benzodiazepine-3-carboxamide]	50
COc1cccc(-c2ccc(C(=O)N3Cc4ccc(C(=O)NCCN5CCCCC5)n4Cc4ccccc43)cc2OC)c1 [Example 159, 10-[(2,3′-Dimethoxy[1,1′-biphenyl]-4-yl)carbonyl]-N-[2-(1-piperidinyl)ethyl]-10,11-dihydro-5H-pyrrolo[2,1-c][1,4]benzodiazepine-3-carboxamide]	50
O=C(NCCN1CCCCC1)c1ccc2n1Cc1ccccc1N(C(=O)c1ccc(-c3cccc4ccccc34)cc1Cl)C2 [Example 160, 10-[2-Chloro-4-(1-naphthyl)benzoyl]-N-[2-(1-piperidinyl)ethyl]-10,11-dihydro-5H-pyrrolo[2,1-c][1,4]benzodiazepine-3-carboxamide]	20
Cc1cc(C(=O)N2Cc3ccc(C(=O)NCCN4CCCCC4)n3Cc3ccccc32)ccc1-c1ccccc1C(F)(F)F [Example 161, 10-{[2-Methyl-2′-(trifluoromethyl)[1,1′-biphenyl]-4-yl]carbonyl}-N-[2-(1-piperidinyl)ethyl]-10,11-dihydro-5H-pyrrolo[2,1-c][1,4]benzodiazepine-3-carboxamide]	53
COc1ccccc1-c1ccc(C(=O)N2Cc3ccc(C(=O)NCCC4CCCN4C)n3Cc3ccccc32)cc1C (stereo not shown) [Example 162, 10-[(2′-Methoxy-2-methyl[1,1′-biphenyl]-4-yl)carbonyl]-N-[2-(1-methyl-2-pyrrolidinyl)ethyl]-10,11-dihydro-5H-pyrrolo[2,1-c][1,4]benzodiazepine-3-carboxamide]	71
Cc1ccccc1-c1ccc(C(=O)N2Cc3ccc(C(=O)NCCC4CCCN4C)n3Cc3ccccc32)cc1C (stereo not shown) [Example 163, 10-[(2,2′-Dimethyl[1,1′-biphenyl]-4-yl)carbonyl]-N-[2-(1-methyl-2-pyrrolidinyl)ethyl]-10,11-dihydro-5H-pyrrolo[2,1-c][1,4]benzodiazepine-3-carboxamide]	82
COc1ccccc1-c1ccc(C(=O)N2Cc3ccc(C(=O)NCCC4CCCN4C)n3Cc3ccccc32)cc1 (stereo not shown) [Example 165, 10-[(2′-Methoxy[1,1′-biphenyl]-4-yl)carbonyl]-N-[2-(1-methyl-2-pyrrolidinyl)ethyl]-10,11-dihydro-5H-pyrrolo[2,1-c][1,4]benzodiazepine-3-carboxamide]	64
Cc1ccccc1-c1ccc(C(=O)N2Cc3ccc(C(=O)NCCC4CCCN4C)n3Cc3ccccc32)cc1 (stereo not shown) [Example 166, 10-[(2′-Methyl[1,1′-biphenyl]-4-yl)carbonyl]-N-[2-(1-methyl-2-pyrrolidinyl)ethyl]-10,11-dihydro-5H-pyrrolo[2,1-c][1,4]benzodiazepine-3-carboxamide]	27
COc1cc(C(=O)N2Cc3ccc(C(=O)NCCC4CCCN4C)n3Cc3ccccc32)ccc1-c1ccccc1C (stereo not shown) [Example 167, 10-[(2-Methoxy-2′-methyl[1,1′-biphenyl]-4-yl)carbonyl]-N-[2-(1-methyl-2-pyrrolidinyl)ethyl]-10,11-dihydro-5H-pyrrolo[2,1-c][1,4]benzodiazepine-3-carboxamide]	60
COc1cc(-c2ccccc2C)c(Cl)cc1C(=O)N1Cc2ccc(C(=O)NCCC3CCCN3C)n2Cc2ccccc21 (stereo not shown) [Example 168, 10-[(6-Chloro-3-methoxy-2′-methyl[1,1′-biphenyl]-4-yl)carbonyl]-N-[2-(1-methyl-2-pyrrolidinyl)ethyl]-10,11-dihydro-5H-pyrrolo[2,1-c][1,4]benzodiazepine-3-carboxamide]	52
COc1cccc(-c2cc(OC)c(C(=O)N3Cc4ccc(C(=O)NCCC5CCCN5C)n4Cc4ccccc43)cc2Cl)c1 (stereo not shown) [Example 169, 10-[(6-Chloro-3,3′-dimethoxy[1,1′-biphenyl]-4-yl)carbonyl]-N-[2-(1-methyl-2-pyrrolidinyl)ethyl]-10,11-dihydro-5H-pyrrolo[2,1-c][1,4]benzodiazepine-3-carboxamide]	36
COc1cc(C(=O)N2Cc3ccc(C(=O)NCCC4CCCN4C)n3Cc3ccccc32)ccc1-c1cccc2ccccc12 (stereo not shown) [Example 170, 10-[3-Methoxy-4-(1-naphthyl)benzoyl]-N-[2-(1-methyl-2-pyrrolidinyl)ethyl]-10,11-dihydro-5H-pyrrolo[2,1-c][1,4]benzodiazepine-3-carboxamide]	47
COc1ccccc1-c1ccc(C(=O)N2Cc3ccc(C(=O)NCCC4CCCN4C)n3Cc3ccccc32)cc1OC (stereo not shown) [Example 171, 10-[(2,2′-Dimethoxy[1,1′-biphenyl]-4-yl)carbonyl]-N-[2-(1-methyl-2-pyrrolidinyl)ethyl]-10,11-dihydro-5H-pyrrolo[2,1-c][1,4]benzodiazepine-3-carboxamide]	40
COc1cccc(-c2ccc(C(=O)N3Cc4ccc(C(=O)NCCC5CCCN5C)n4Cc4ccccc43)cc2OC)c1 (stereo not shown) [Example 172, 10-[(2,3′-Dimethoxy[1,1′-biphenyl]-4-yl)carbonyl]-N-[2-(1-methyl-2-pyrrolidinyl)ethyl]-10,11-dihydro-5H-pyrrolo[2,1-c][1,4]benzodiazepine-3-carboxamide]	47
CN1CCCC1CCNC(=O)c1ccc2n1Cc1ccccc1N(C(=O)c1ccc(-c3cccc4ccccc34)cc1Cl)C2 (stereo not shown) [Example 173, 10-[2-Chloro-4-(1-naphthyl)benzoyl]-N-[2-(1-methyl-2-pyrrolidinyl)ethyl]-10,11-dihydro-5H-pyrrolo[2,1-c][1,4]benzodiazepine-3-carboxamide]	21
Cc1cc(C(=O)N2Cc3ccc(C(=O)NCCC4CCCN4C)n3Cc3ccccc32)ccc1-c1ccccc1C(F)(F)F (stereo not shown) [Example 174, N-[2-(1-Methyl-2-pyrrolidinyl)ethyl]-10-{[2-methyl-2′-(trifluoromethyl)[1,1′-biphenyl]-4-yl]carbonyl}-10,11-dihydro-5H-pyrrolo[2,1-c][1,4]benzodiazepine-3-carboxamide]	59
COc1ccccc1-c1ccc(C(=O)N2Cc3ccc(C(=O)N(C)C4CCN(C)CC4)n3Cc3ccccc32)cc1C [Example 175, 10-[(2′-Methoxy-2-methyl[1,1′-biphenyl]-4-yl)carbonyl]-N-methyl-N-(1-methyl-4-piperidinyl)-10,11-dihydro-5H-pyrrolo[2,1-c][1,4]benzodiazepine-3-carboxamide]	98
COc1cccc(-c2ccc(C(=O)N3Cc4ccc(C(=O)N(C)C5CCN(C)CC5)n4Cc4ccccc43)cc2C)c1 [Example 176, 10-[(3′-Methoxy-2-methyl[1,1′-biphenyl]-4-yl)carbonyl]-N-methyl-N-(1-methyl-4-piperidinyl)-10,11-dihydro-5H-pyrrolo[2,1-c][1,4]benzodiazepine-3-carboxamide]	88
COc1ccccc1-c1ccc(C(=O)N2Cc3ccc(C(=O)N(C)C4CCN(C)CC4)n3Cc3ccccc32)cc1 [Example 177, 10-[(2′-Methoxy[1,1′-biphenyl]-4-yl)carbonyl]-N-methyl-N-(1-methyl-4-piperidinyl)-10,11-dihydro-5H-pyrrolo[2,1-c][1,4]benzodiazepine-3-carboxamide]	98
